From US9695155B2, “Herbicidal substituted pyrimidinyloxy benzene compounds” (E. I. DU PONT DE NEMOURS AND COMPANY, priority 2013, dated 2017)

Experiments:
giant foxtail [1] = assay: Test A preemergence; assay type: in vivo, Setaria faberii
How it was run: (§1)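 Greenhouse pot test, loam/sand soil. Formulation: non-phytotoxic solvent mix plus surfactant. Pre: directed spray onto soil after sowing. Post: plants at 1–2 leaf, 2–10 cm. Rated visually vs untreated controls at ~10 d, 0 (no effect) to 100 (complete control).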

wheat = assay: Test A preemergence; assay type: in vivo, Triticum aestivum
How it was run: as §1

corn = assay: Test A preemergence; assay type: in vivo, Zea mays
How it was run: as §1

large (Lg) crabgrass = assay: Test A postemergence; assay type: in vivo, Digitaria sanguinalis
How it was run: as §1

giant foxtail [2] = assay: Test A postemergence; assay type: in vivo, Setaria faberii
How it was run: as §1

pigweed = assay: Test A postemergence; assay type: in vivo, Amaranthus retroflexus
How it was run: as §1

rice = assay: Test B flooded paddy test; assay type: in vivo, Oryza sativa; conditions: Flood, 250 g ai/ha; 0 to 100 scale where 0 is no effect and 100 is complete control
How it was run: (§2)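 Visual ratings on a 0 to 100 scale, where 100 means complete control, compared treated plants with controls after 13 to 15 days in a greenhouse. Treatment went into paddy water 3 cm deep over the soil, applied to plants at the 2-leaf stage.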

sedge, umbrella = assay: Test B flooded paddy test; assay type: in vivo, Cyperus difformis; conditions: Flood, 250 g ai/ha; 0 to 100 scale where 0 is no effect and 100 is complete control
How it was run: as §2

barnyardgrass = assay: Test B flooded paddy test; assay type: in vivo, Echinochloa crus-galli; conditions: Flood, 250 g ai/ha; 0 to 100 scale where 0 is no effect and 100 is complete control
How it was run: as §2

Italian ryegrass = assay: Test C postemergence; assay type: in vivo, Lolium multiflorum; conditions: for Plant response rating (0 to 100), Ryegrass, Italian: 0 is no effect, 100 is complete control; for Ryegrass, Italian plant response rating: 31 g ai/ha; for Ryegrass, Italian plant response rating / Plant response rating, Ryegrass, Italian: scale 0 to 100 (0 no effect, 100 complete control)
How it was run: (§3)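 Greenhouse herbicide screen. Pre: seeded loam/sand, sprayed at planting. Post: 1–4 leaf plants (2–18 cm) in peat-based mix. Formulation: solvent mixture + surfactant, non-phytotoxic. Readout: visual % control vs untreated, 13–15 d; dash = not tested.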

galium = assay: Test C postemergence; assay type: in vivo, Galium aparine; conditions: for Plant response rating (0 to 100), Galium: 0 is no effect, 100 is complete control; for Galium plant response rating: 31 g ai/ha; for Galium plant response rating / Plant response rating, Galium: scale 0 to 100 (0 no effect, 100 complete control)
How it was run: as §3

lambsquarters = assay: Test C postemergence; assay type: in vivo, Chenopodium album; conditions: for Plant response rating (0 to 100), Lambsquarters: 0 is no effect, 100 is complete control; for Lambsquarters plant response rating: 31 g ai/ha; for Lambsquarters plant response rating / Plant response rating, Lambsquarters: scale 0 to 100 (0 no effect, 100 complete control)
How it was run: as §3

soybean = assay: Test C postemergence; assay type: in vivo, Glycine max; conditions: for Plant response rating (0 to 100), Soybean: 0 is no effect, 100 is complete control; for Soybean plant response rating: 31 g ai/ha; for Soybean plant response rating / Plant response rating, Soybean: scale 0 to 100 (0 no effect, 100 complete control)
How it was run: as §3

oilseed rape = assay: Test C postemergence; assay type: in vivo, Brassica napus; conditions: for Plant response rating (0 to 100), Oilseed Rape: 0 is no effect, 100 is complete control; for Oilseed Rape plant response rating: 31 g ai/ha; for Oilseed Rape plant response rating / Plant response rating, Oilseed Rape: scale 0 to 100 (0 no effect, 100 complete control)
How it was run: as §3

waterhemp = assay: Test C postemergence; assay type: in vivo, Amaranthus rudis; conditions: for Plant response rating (0 to 100), Waterhemp: 0 is no effect, 100 is complete control; for Waterhemp plant response rating: 31 g ai/ha; for Waterhemp plant response rating / Plant response rating, Waterhemp: scale 0 to 100 (0 no effect, 100 complete control)
How it was run: as §3

chickweed = assay: Test C postemergence; assay type: in vivo, Stellaria media; conditions: for Plant response rating (0 to 100), Chickweed: 0 is no effect, 100 is complete control; for Chickweed plant response rating: 31 g ai/ha; for Chickweed plant response rating / Plant response rating, Chickweed: scale 0 to 100 (0 no effect, 100 complete control)
How it was run: as §3

[3] = 500 g ai/ha, 0 to 100 scale where 0 is no effect and 100 is complete control
[4] = 125 g ai/ha, 0 to 100 scale where 0 is no effect and 100 is complete control
[5] = postemergence, visual rating, 13 to 15 days
[6] = 125 g ai/ha, postemergence, visual rating
[7] = Postemergence, 62 g ai/ha, 13 to 15 days
[8] = 1000 g ai/ha, 0 to 100 scale, 0 no effect, 100 complete control, approx. 10 days
[9] = 1000 g ai/ha, 0 to 100 scale, 0 no effect, 100 complete control

Clc1cnc(Oc2cccc(Br)c2-n2cc(Cl)cn2)nc1 [Compound 221]
Foxtail, Giant plant response rating (0 to 100 scale) (giant foxtail [1]; 125 g ai/ha): 100
Foxtail, Giant plant response rating (giant foxtail [1]; [3]): 100
Wheat plant response rating (0 to 100 scale) (wheat; 125 g ai/ha): 0
Wheat plant response rating (wheat; [3]): 10
Corn plant response rating (0 to 100 scale) (corn; 125 g ai/ha): 0
Corn plant response rating (corn; [3]): 0
Crabgrass, Large plant response rating (large (Lg) crabgrass; [4]): 60
Plant response rating, Crabgrass, Large (large (Lg) crabgrass; [3]): 100
Foxtail, Giant plant response rating (giant foxtail [2]; [4]): 50
Plant response rating, Foxtail, Giant (giant foxtail [2]; [3]): 90
Pigweed plant response rating (pigweed; [4]): 100
Plant response rating, Pigweed (pigweed; [3]): 100
Plant response rating, Rice (rice): 0
Plant response rating, Sedge, Umbrella (sedge, umbrella): 0
Plant response rating, Barnyardgrass (barnyardgrass): 0
Plant response rating (0 to 100), Ryegrass, Italian (Italian ryegrass; 16 g ai/ha, postemergence): 0
Ryegrass, Italian plant response rating (Italian ryegrass; [5]): 0
Plant response rating, Ryegrass, Italian (Italian ryegrass; [6]): 5
Plant response rating, Ryegrass, Italian (Italian ryegrass; [7]): 5
Plant response rating (0 to 100), Galium (galium; 16 g ai/ha, postemergence): 60
Galium plant response rating (galium; [5]): 55
Plant response rating, Galium (galium; [6]): 90
Plant response rating, Galium (galium; [7]): 55
Plant response rating (0 to 100), Lambsquarters (lambsquarters; 16 g ai/ha, postemergence): 15
Lambsquarters plant response rating (lambsquarters; [5]): 60
Plant response rating, Lambsquarters (lambsquarters; [6]): 65
Plant response rating, Lambsquarters (lambsquarters; [7]): 50
Plant response rating (0 to 100), Soybean (soybean; 16 g ai/ha, postemergence): 30
Soybean plant response rating (soybean; [5]): 55
Plant response rating, Soybean (soybean; [6]): 80
Plant response rating, Soybean (soybean; [7]): 65
Plant response rating (0 to 100), Oilseed Rape (oilseed rape; 16 g ai/ha, postemergence): 40
Oilseed Rape plant response rating (oilseed rape; [5]): 50
Plant response rating, Oilseed Rape (oilseed rape; [6]): 80
Plant response rating, Oilseed Rape (oilseed rape; [7]): 60
Plant response rating (0 to 100), Waterhemp (waterhemp; 16 g ai/ha, postemergence): 65
Waterhemp plant response rating (waterhemp; [5]): 70
Plant response rating, Waterhemp (waterhemp; [6]): 80
Plant response rating, Waterhemp (waterhemp; [7]): 80
Plant response rating (0 to 100), Chickweed (chickweed; 16 g ai/ha, postemergence): 20
Chickweed plant response rating (chickweed; [5]): 60
Plant response rating, Chickweed (chickweed; [6]): 50
Plant response rating, Chickweed (chickweed; [7]): 60

Clc1cnc(Oc2ccccc2-n2cc(I)nn2)nc1 [Compound 222]
Foxtail, Giant plant response rating (giant foxtail [1]; [8]): 100
Wheat plant response rating (wheat; [8]): 70
Corn plant response rating (corn; [8]): 60
Plant response rating, Crabgrass, Large (large (Lg) crabgrass; [9]): 100
Plant response rating, Foxtail, Giant (giant foxtail [2]; [9]): 90
Plant response rating, Pigweed (pigweed; [9]): 100
Plant response rating, Rice (rice): 0
Plant response rating, Sedge, Umbrella (sedge, umbrella): 70
Plant response rating, Barnyardgrass (barnyardgrass): 0
Plant response rating (0 to 100), Ryegrass, Italian (Italian ryegrass; 8 g ai/ha, postemergence): 0
Plant response rating (0 to 100), Ryegrass, Italian (Italian ryegrass; 16 g ai/ha, postemergence): 0
Ryegrass, Italian plant response rating (Italian ryegrass; [5]): 0
Plant response rating, Ryegrass, Italian (Italian ryegrass; [7]): 0
Plant response rating (0 to 100), Galium (galium; 8 g ai/ha, postemergence): 65
Plant response rating (0 to 100), Galium (galium; 16 g ai/ha, postemergence): 70
Galium plant response rating (galium; [5]): 85
Plant response rating, Galium (galium; [7]): 85
Plant response rating (0 to 100), Lambsquarters (lambsquarters; 8 g ai/ha, postemergence): 50
Plant response rating (0 to 100), Lambsquarters (lambsquarters; 16 g ai/ha, postemergence): 65
Lambsquarters plant response rating (lambsquarters; [5]): 65
Plant response rating, Lambsquarters (lambsquarters; [7]): 75
Plant response rating (0 to 100), Soybean (soybean; 8 g ai/ha, postemergence): 40
Plant response rating (0 to 100), Soybean (soybean; 16 g ai/ha, postemergence): 55
Soybean plant response rating (soybean; [5]): 65
Plant response rating, Soybean (soybean; [7]): 60
Plant response rating (0 to 100), Oilseed Rape (oilseed rape; 8 g ai/ha, postemergence): 10
Plant response rating (0 to 100), Oilseed Rape (oilseed rape; 16 g ai/ha, postemergence): 5
Oilseed Rape plant response rating (oilseed rape; [5]): 10
Plant response rating, Oilseed Rape (oilseed rape; [7]): 20
Plant response rating (0 to 100), Waterhemp (waterhemp; 8 g ai/ha, postemergence): 60
Plant response rating (0 to 100), Waterhemp (waterhemp; 16 g ai/ha, postemergence): 70
Waterhemp plant response rating (waterhemp; [5]): 90
Plant response rating, Waterhemp (waterhemp; [7]): 90
Plant response rating (0 to 100), Chickweed (chickweed; 8 g ai/ha, postemergence): 10
Plant response rating (0 to 100), Chickweed (chickweed; 16 g ai/ha, postemergence): 60
Chickweed plant response rating (chickweed; [5]): 85
Plant response rating, Chickweed (chickweed; [7]): 100
